The values below are quoted from earlier work in patent US20240130937A1, “ORAL CARE COMPOSITION” (LACER, S.A., priority 2019, published 2024).

The conditions of this series: at 25° C.

`[Cl-].[Cl-].[Zn+2]` [zinc chloride]: the solubility in water was 4320 mg/mL.
